This note sets out measurements from US10570129B2 (Zoetis Services LLC, priority 2015, dated 2020).

Bounds are passed on as bounds.

One test concerns D. immitis microfilariae. Put plainly: Dirofilaria immitis, microfilariae (DiMF) in vitro motility assay. In kind it is cell-based. The following applies: Dirofilaria immitis, 72 h, read-out: DiMF minimally effective dose (MEC).
The next test concerns Haemonchus contortus L3. Put plainly: microbe, parasite or virus in culture. The format is cell-based. The following applies: Haemonchus contortus, 96 h, read-out: HcL3 Minimal Effective Concentration (MEC).

As to `N#Cc1ccc(/C=C/CN2CCc3c(c4cc(F)c(Cl)cc4n3C(=O)NCc3ccnc(F)c3)C2)cc1F` [Example 311, (E)-7-chloro-2-(3-(4-cyano-3-fluorophenyl)allyl)-8-fluoro-N-((2-fluoro-pyridin-4-yl)methyl)-1,2,3,4-tetrahydro-5H-pyrido[4,3-b]indole-5-carboxamide], the values for the minimal effective concentration with D. immitis microfilariae and in the test with Haemonchus contortus L3 were 5.7 µM and 0.5 µM, respectively.

`COc1ccc(/C=C/CN2CCc3c(c4c(Cl)cccc4n3C(=O)NCc3ccnc(Cl)c3)C2)cc1` [Example 220, (E)-9-chloro-N-((2-chloropyridin-4-yl)methyl)-2-(3-(4-methoxyphenyl)allyl)-1,2,3,4-tetrahydro-5H-pyrido[4,3-b]indole-5-carboxamide]: the minimal effective concentration in the test on D. immitis microfilariae stood at 10 µM; in the test with Haemonchus contortus L3 it was 3.3 µM.

In the case of `N#Cc1ccc(/C=C/CN2CCc3c(c4ccc(C#N)cc4n3C(=O)NCc3ccnc(Cl)c3)C2)cc1` [Example 33, (E)-N-((2-chloropyridin-4-yl)methyl)-7-cyano-2-(3-(4-cyanophenyl)allyl)-1,2,3,4-tetrahydro-5H-pyrido[4,3-b]indole-5-carboxamide], the minimal effective concentration was more than 100 µM with D. immitis microfilariae and 3.3 µM in the test on Haemonchus contortus L3.

As for `Cc1ccc2c(c1)c1c(n2C(=O)NCc2ccnc(Cl)c2)CCN(C/C=C/c2ccc(C(F)(F)F)cc2)C1` [Example 435, (E)-N-((2-chloropyridin-4-yl)methyl)-8-methyl-2-(3-(4-(trifluoromethyl)-phenyl)allyl)-1,2,3,4-tetrahydro-5H-pyrido[4,3-b]indole-5-carboxamide], the minimal effective concentration in the test with D. immitis microfilariae and in the test on Haemonchus contortus L3 was 5.7 µM throughout.

Take `N#Cc1cc2c3c(n(C(=O)NCc4ccnc(Cl)c4)c2cc1OC(F)(F)F)CCN(C/C=C/c1ccc(Cl)cc1)C3` [Example 503, (E)-2-(3-(4-chlorophenyl)allyl)-N-((2-chloropyridin-4-yl)methyl)-8-cyano-7-(trifluoromethoxy)-1,2,3,4-tetrahydro-5H-pyrido[4,3-b]indole-5-carboxamide]: the minimal effective concentration worked out at 3.3 µM in the test with D. immitis microfilariae and 33 µM in the test on Haemonchus contortus L3.

As for `NC(=O)c1ccc2c3c(n(C(=O)NCc4ccnc(Cl)c4)c2c1)CCN(C/C=C/c1ccc(Cl)c(F)c1)C3` [Example 465, (E)-2-(3-(4-chloro-3-fluorophenyl)allyl)-N^5-((2-chloropyridin-4-yl)methyl)-1,2,3,4-tetrahydro-5H-pyrido[4,3-b]indole-5,7-dicarboxamide], the minimal effective concentration in the test on D. immitis microfilariae amounted to 10 µM; in the test on Haemonchus contortus L3, 3.3 µM.

Consider `O=C(NCc1ccnc(F)c1)n1c2c(c3ccc(C(F)(F)F)cc31)CN(C/C=C/c1ccc(Cl)c(Cl)c1)CC2` [Example 166, (E)-2-(3-(3,4-dichlorophenyl)allyl)-N-((2-fluoropyridin-4-yl)methyl)-7-(trifluoromethyl)-1,2,3,4-tetrahydro-5H-pyrido[4,3-b]indole-5-carboxamide], for which the minimal effective concentration amounted to 5.7 µM in the test with D. immitis microfilariae and 10 µM in the test with Haemonchus contortus L3.

For the molecule `O=C(NCc1ccnc(Cl)c1)n1c2c(c3ccc(OC(F)(F)F)cc31)CN(C/C=C/c1c(F)cc(F)cc1F)CC2` [Example 341, (E)-N-((2-chloropyridin-4-yl)methyl)-7-(trifluoromethoxy)-2-(3-(2,4,6-trifluorophenyl)allyl)-1,2,3,4-tetrahydro-5H-pyrido[4,3-b]indole-5-carboxamide], the minimal effective concentration in the test on D. immitis microfilariae is 5.7 µM; in the test on Haemonchus contortus L3, 3.3 µM.

For `N#Cc1ccc(/C=C/CN2CCc3c(c4cc(F)c(C#N)cc4n3C(=O)NCc3ccnc(Cl)c3)C2)cc1` [Example 173, (E)-N-((2-chloropyridin-4-yl)methyl)-7-cyano-2-(3-(4-cyanophenyl)allyl)-8-fluoro-1,2,3,4-tetrahydro-5H-pyrido[4,3-b]indole-5-carboxamide], the minimal effective concentration in the test on D. immitis microfilariae was more than 100 µM; with Haemonchus contortus L3, 18.2 µM.

For `O=C(NCc1ccnc(F)c1)n1c2c(c3cc(OC(F)(F)F)ccc31)CN(C/C=C/c1ccc(Cl)cc1)CC2` [Example 408, (E)-2-(3-(4-chlorophenyl)allyl)-N-((2-fluoropyridin-4-yl)methyl)-8-(trifluoromethoxy)-1,2,3,4-tetrahydro-5H-pyrido[4,3-b]indole-5-carboxamide], the minimal effective concentration was found to be 10 µM in the test on D. immitis microfilariae and 1 µM with Haemonchus contortus L3.

For `N#Cc1ccc2c3c(n(C(=O)NCc4ccnc(Cl)c4)c2c1)CCN(C/C=C/c1ccc(Cl)cc1)C3` [Example 34, (E)-2-(3-(4-chlorophenyl)allyl)-N-((2-chloropyridin-4-yl)methyl)-7-cyano-1,2,3,4-tetrahydro-5H-pyrido[4,3-b]indole-5-carboxamide], the minimal effective concentration in the test with D. immitis microfilariae and in the test with Haemonchus contortus L3 was 3.3 µM each time.

On to `O=C(NCc1ccnc(Cl)c1)n1c2c(c3cc(OC(F)(F)F)c(Br)cc31)CN(C/C=C/c1ccc(Cl)cc1)CC2` [Example 497, (E)-7-bromo-2-(3-(4-chlorophenyl)allyl)-N-((2-chloropyridin-4-yl)methyl)-8-(trifluoromethoxy)-1,2,3,4-tetrahydro-5H-pyrido[4,3-b]indole-5-carboxamide], for which the results for the minimal effective concentration in the test on D. immitis microfilariae and in the test with Haemonchus contortus L3 were 5.7 µM and 1 µM, respectively.

`O=C(NCc1ccnc(F)c1)n1c2c(c3cc(OC(F)(F)F)ccc31)CN(C/C=C/c1ccc(F)c(F)c1)CC2` [Example 405, (E)-2-(3-(3,4-difluorophenyl)allyl)-N-((2-fluoropyridin-4-yl)methyl)-8-(trifluoromethoxy)-1,2,3,4-tetrahydro-5H-pyrido[4,3-b]indole-5-carboxamide]: the minimal effective concentration worked out at 5.7 µM in the test on D. immitis microfilariae and 0.3 µM with Haemonchus contortus L3.

Turning to `O=C(NCc1ccnc(Cl)c1)n1c2c(c3ccc(OC(F)(F)F)cc31)CN(C/C=C/c1cc(F)c(F)c(F)c1)CC2` [Example 350, (E)-N-((2-chloropyridin-4-yl)methyl)-7-(trifluoromethoxy)-2-(3-(3,4,5-trifluorophenyl)allyl)-1,2,3,4-tetrahydro-5H-pyrido[4,3-b]indole-5-carboxamide], the minimal effective concentration in the test on D. immitis microfilariae was found to be 1.3 µM; in the test with Haemonchus contortus L3, 0.2 µM.

Regarding `O=C(NCc1ccnc(Cl)c1)n1c2c(c3cc(N4CCCC4)ccc31)CN(C/C=C/c1ccc(Cl)c(F)c1)CC2` [Example 506, (E)-2-(3-(4-chloro-3-fluorophenyl)allyl)-N-((2-chloropyridin-4-yl)methyl)-8-(pyrrolidin-1-yl)-1,2,3,4-tetrahydro-5H-pyrido[4,3-b]indole-5-carboxamide], the minimal effective concentration with D. immitis microfilariae was more than 100 µM; in the test on Haemonchus contortus L3 it was 7.6 µM.

Take `N#Cc1cccc2c1c1c(n2C(=O)NCc2ccnc(Cl)c2)CCN(C/C=C/c2ccc(F)cc2Cl)C1` [Example 25, (E)-2-(3-(2-chloro-4-fluorophenyl)allyl)-N-((2-chloropyridin-4-yl)methyl)-9-cyano-1,2,3,4-tetrahydro-5H-pyrido[4,3-b]indole-5-carboxamide]: the minimal effective concentration with D. immitis microfilariae is 33 µM; in the test with Haemonchus contortus L3, more than 100 µM.

As to `O=C(NCc1ccnc(Cl)c1)n1c2c(c3cc(Cl)c(Cl)cc31)CN(C/C=C/c1ccc(OC(F)(F)F)cc1)CC2` [Example 284, (E)-7,8-dichloro-N-((2-chloropyridin-4-yl)methyl)-2-(3-(4-(trifluoro-methoxy)phenyl)allyl)-1,2,3,4-tetrahydro-5H-pyrido[4,3-b]indole-5-carboxamide], the minimal effective concentration in the test on D. immitis microfilariae is 10 µM; in the test on Haemonchus contortus L3, more than 100 µM.

As for `O=C(NCc1ccnc(Cl)c1)n1c2c(c3cccc(Cl)c31)CN(C/C=C/c1ccc(F)cc1)CC2` [Example 269, (E)-6-chloro-N-((2-chloropyridin-4-yl)methyl)-2-(3-(4-fluorophenyl)allyl)-1,2,3,4-tetrahydro-5H-pyrido[4,3-b]indole-5-carboxamide], the minimal effective concentration in the test with D. immitis microfilariae was 3.3 µM; in the test with Haemonchus contortus L3, more than 100 µM.

For the molecule `N#Cc1ccc(/C=C/CN2CCc3c(c4cc(C#N)ccc4n3C(=O)NCc3ccnc(F)c3)C2)cc1` [Example 120, (E)-8-cyano-2-(3-(4-cyanophenyl)allyl)-N-((2-fluoropyridin-4-yl)methyl)-1,2,3,4-tetrahydro-5H-pyrido[4,3-b]indole-5-carboxamide], the minimal effective concentration was more than 100 µM with D. immitis microfilariae and 0.5 µM with Haemonchus contortus L3.

`O=C(NCc1ccnc(Cl)c1)n1c2c(c3cc(F)c(OC(F)(F)F)cc31)CN(C/C=C/c1ccc(F)cc1)CC2` [Example 471, (E)-N-((2-chloropyridin-4-yl)methyl)-8-fluoro-2-(3-(4-fluorophenyl)allyl)-7-(trifluoromethoxy)-1,2,3,4-tetrahydro-5H-pyrido[4,3-b]indole-5-carboxamide]: the minimal effective concentration with D. immitis microfilariae was 10 µM; in the test on Haemonchus contortus L3, 0.3 µM.

Turning to `O=C(NCc1ccnc(F)c1)n1c2c(c3ccc(OC(F)(F)F)cc31)CN(C/C=C/c1ccc(F)c(F)c1)CC2` [Example 376, (E)-2-(3-(3,4-difluorophenyl)allyl)-N-((2-fluoropyridin-4-yl)methyl)-7-(trifluoromethoxy)-1,2,3,4-tetrahydro-5H-pyrido[4,3-b]indole-5-carboxamide], the minimal effective concentration is 10 µM with D. immitis microfilariae and 0.5 µM with Haemonchus contortus L3.

As to `O=C(NCc1ccnc(F)c1)n1c2c(c3c(OC(F)(F)F)cccc31)CN(C/C=C/c1ccc(Cl)cc1)CC2` [Example 379a, (E)-2-(3-(4-chlorophenyl)allyl)-N-((2-fluoropyridin-4-yl)methyl)-9-(trifluoromethoxy)-1,2,3,4-tetrahydro-5H-pyrido[4,3-b]indole-5-carboxamide], the values for the minimal effective concentration in the test with D. immitis microfilariae and in the test with Haemonchus contortus L3 were 3.3 µM and more than 100 µM, respectively.

As to `N#Cc1ccc2c(c1)c1c(n2C(=O)NCc2ccnc(Cl)c2)CCN(C/C=C/c2c(F)c(F)c(Cl)c(F)c2F)C1` [Example 84, (E)-2-(3-(4-chloro-2,3,5,6-tetrafluorophenyl)allyl)-N-((2-chloropyridin-4-yl)methyl)-8-cyano-1,2,3,4-tetrahydro-5H-pyrido[4,3-b]indole-5-carboxamide], the minimal effective concentration in the test with D. immitis microfilariae is more than 100 µM; in the test on Haemonchus contortus L3 it was 0.1 µM.
